From patent US8039438B2, “Synthetic peptides that cause F-actin bundling and block actin depolymerization” (The Regents of the University of California, priority 2003, dated 2011) come the findings set out here.

Assay [1] has as its target T1, purified rabbit muscle actin (Oryctolagus cuniculus, UniProt P68135).
T1 construct: purified rabbit muscle actin in vitro were visualized by negative stain electron microscopy; from tissue; host or cells: rabbit muscle
Description: Negative stain electron microscopy of actin polymerized in presence of peptide. Format: biochemical. To be noted: co-polymerization, molar ratio peptide:actin=2, negative stain electron microscopy. The source says:
The actin bundles caused by co-polymerization of SS12 peptide with purified rabbit muscle actin in vitro were visualized by negative stain electron microscopy (FIG. 5). The bundles still show overall filamenteous structure about 3 times the width of actin filaments polymerized in vitro in the absence of SS12 peptide (FIG. 5A, B). The surface of the bundles is not smooth, but irregular, resembling attempts to branch or attachments of short actin bundles to the sides of the long ones (FIG. 5C). The peptide-bundled actin filaments are much shorter than the control filaments as visualized with rhodamine-phalloidin by fluorescence microscopy (data not shown).
Purified rabbit actin was polymerized in the presence or absence of the SS12 peptide and by absorption applied to a carbon coated copper grid. Negative contrastation was carried out with Pb-citrate and the dried grid was viewed in an Electron microscope at high magnifications (12,000× and 65,000×). […] Higher magnification identified a “modulated” decoration of the otherwise smooth filaments.

Assay [2] deals with dextran-labeled electroporated cells. Description: Change in number of dextran-labeled cells after electroporation with peptide. Format: cell-based.
Assay [3] deals with MCF7 cells. Description: Cytokinesis in MCF7 cells imaged after addition of peptide. The format is cell-based. To be noted: MCF7 cells electroporated with GFP-actin, peptide in DMSO, imaged up to 4 hours. On the procedure:
MCF7 cells were electroporated with GFP-actin and imaged (image not shown). After addition of peptide in DMSO, the MCF7 cells were continuously imaged for up to 4 hours. […] The actin filaments within the cells were observed by fluorescence and had the appearance of spikes. Thus it appears that treatment by the active peptide results in inhibition of cytokinesis and blocks cell division.

Take “GIVRKWISRFEVWPYL (SS12 active synthetic peptide)”: in assay [1], the “width of bundles relative to actin filaments polymerized in the absence of peptide” value is on record as “about 3 times the width”. The “number of cells after 24 hours” value in assay [2] (compared to cells treated with the inactive peptide) is listed as “decrease in the number of cells”. Also, the “time over which cell division was inhibited” value in assay [2] (observation period 36 hours, cells with 24 hr cell cycle) is 36 h. Further, the “cytokinesis and nuclear division” value in assay [3] is listed as “cytokinesis but not nuclear division was blocked”.
